Read-outs that look alike come from different tables or passages of the source. Square brackets hold non-standard residues; d marks the D form. Peptide text beside a SMILES is read from it. AEEA = NCCOCCOCC(=O)O

The test has as its target T1, human CCK-B R (Homo sapiens, UniProt P32239).
T1 construct: expressed in transfected cells
T1 sequence (P32239 1-447): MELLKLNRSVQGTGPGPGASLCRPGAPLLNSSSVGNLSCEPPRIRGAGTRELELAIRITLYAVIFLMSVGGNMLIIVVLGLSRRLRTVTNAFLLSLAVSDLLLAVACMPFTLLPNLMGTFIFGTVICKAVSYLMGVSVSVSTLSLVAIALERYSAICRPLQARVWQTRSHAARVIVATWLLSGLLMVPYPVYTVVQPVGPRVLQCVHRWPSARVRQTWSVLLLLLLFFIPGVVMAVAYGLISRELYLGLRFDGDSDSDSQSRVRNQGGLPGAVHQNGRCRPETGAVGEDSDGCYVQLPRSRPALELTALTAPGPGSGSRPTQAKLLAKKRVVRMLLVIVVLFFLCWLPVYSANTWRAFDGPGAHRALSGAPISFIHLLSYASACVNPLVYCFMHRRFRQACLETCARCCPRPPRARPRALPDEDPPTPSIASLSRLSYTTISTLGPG
Nature of the test: Human CCK-B receptor efficacy assay (AlphaScreen SureFire p-ERK). Type of test: cell-based. The note with it: read-out: hCCK-B R EC50. (In Alpha technology, singlet oxygen from a donor bead excites a nearby acceptor bead.)

Consider `CC[C@H](C)[C@H](NC(=O)[C@H](Cc1ccccc1)NC(=O)[C@H](CC(C)C)NC(=O)[C@H](CCCNC(=N)N)NC(=O)[C@@H](NC(=O)[C@H](C)NC(=O)[C@H](CCC(=O)O)NC(=O)[C@H](CCC(=O)O)NC(=O)[C@H](CCC(=O)O)NC(=O)[C@H](CC(C)C)NC(=O)[C@H](Cc1ccc(O)cc1)NC(=O)[C@H](CCCCN)NC(=O)[C@H](CO)NC(=O)[C@H](CC(C)C)NC(=O)[C@H](CC(=O)O)NC(=O)[C@H](CO)NC(=O)[C@@H](NC(=O)[C@H](Cc1ccccc1)NC(=O)[C@@H](NC(=O)CNC(=O)[C@H](CCC(=O)O)NC(=O)CNC(=O)[C@@H](N)Cc1c[nH]cn1)[C@@H](C)O)[C@@H](C)O)C(C)C)C(=O)N[C@@H](CCC(=O)O)C(=O)N[C@@H](Cc1ccccc1)C(=O)N[C@@H](CC(C)C)C(=O)N[C@@H](CCCCN)C(=O)NCCOCCOCC(=O)NCCOCCOCC(=O)N[C@@H](Cc1ccc(O)cc1)C(=O)NCC(=O)N[C@@H](Cc1ccccc1)C(=O)N[C@@H](CC(C)C)C(=O)N[C@@H](CC(=O)O)C(=O)N[C@@H](Cc1ccccc1)C(N)=O` [Compound 89, [Leu14, Phe25,Tyr13]Exendin-4(1-27)-Peg3-Peg3-[Leu4, Phe3]Gastrin6] (H-HGEGTFTSDLSKYLEEEAVRLFIEFLK[AEEA][AEEA]YGFLDF-NH2), for which the concentration giving a half-maximal response (EC50) (Table 2) was found to be 1200 nM.

With `CCCCCCCCCCCCCCCC(=O)N[C@@H](CCC(=O)NCCCC[C@H](NC(=O)[C@@H](NC(=O)[C@H](CC(C)C)NC(=O)[C@H](Cc1c[nH]c2ccccc12)NC(=O)[C@H](C)NC(=O)[C@@H](NC(=O)[C@H](Cc1ccccc1)NC(=O)[C@H](CCC(=O)O)NC(=O)[C@H](CCCCN)NC(=O)[C@H](C)NC(=O)[C@H](C)NC(=O)[C@H](CCC(N)=O)NC(=O)CNC(=O)[C@H](CCC(=O)O)NC(=O)[C@H](CC(C)C)NC(=O)[C@H](Cc1ccc(O)cc1)NC(=O)[C@H](CO)NC(=O)[C@H](CO)NC(=O)[C@@H](NC(=O)[C@H](CC(=O)O)NC(=O)[C@H](CO)NC(=O)[C@@H](NC(=O)[C@H](Cc1ccccc1)NC(=O)[C@@H](NC(=O)CNC(=O)[C@H](CCC(=O)O)NC(=O)[C@H](C)NC(=O)[C@@H](N)Cc1c[nH]cn1)[C@@H](C)O)[C@@H](C)O)C(C)C)[C@@H](C)CC)C(C)C)C(=O)NCC(=O)N[C@@H](CCCNC(=N)N)C(=O)NCC(=O)NCCOCCOCC(=O)NCCOCCOCC(=O)N[C@@H](Cc1ccc(O)cc1)C(=O)NCC(=O)N[C@@H](Cc1c[nH]c2ccccc12)C(=O)N[C@@H](CC(C)C)C(=O)N[C@@H](CC(=O)O)C(=O)N[C@@H](Cc1ccccc1)C(N)=O)C(=O)O` [Compound 106, [Lys(Hexadecanoyl-isoGlu)34]GLP-1(7-37)-Peg3-Peg3-[Leu4]Gastrin6], where the note is “Table 3”, the EC50 was 18 nM.

Turning to `CCCCCCCCCCCCCCCC(=O)N[C@@H](CCC(=O)NCCCC[C@H](NC(=O)[C@H](C)NC(=O)[C@H](C)NC(=O)[C@H](CCC(N)=O)NC(=O)CNC(=O)[C@H](CCC(=O)O)NC(=O)[C@H](CC(C)C)NC(=O)[C@H](Cc1ccc(O)cc1)NC(=O)[C@H](CO)NC(=O)[C@H](CO)NC(=O)[C@@H](NC(=O)[C@H](CC(=O)O)NC(=O)[C@H](CO)NC(=O)[C@@H](NC(=O)[C@H](Cc1ccccc1)NC(=O)[C@@H](NC(=O)CNC(=O)[C@H](CCC(=O)O)NC(=O)[C@H](C)NC(=O)[C@@H](N)Cc1c[nH]cn1)[C@@H](C)O)[C@@H](C)O)C(C)C)C(=O)N[C@@H](CCC(=O)O)C(=O)N[C@@H](Cc1ccccc1)C(=O)N[C@H](C(=O)N[C@@H](C)C(=O)N[C@@H](Cc1c[nH]c2ccccc12)C(=O)N[C@@H](CC(C)C)C(=O)N[C@H](C(=O)N[C@@H](CCCNC(=N)N)C(=O)NCC(=O)N[C@@H](CCCNC(=N)N)C(=O)NCC(=O)NCCOCCOCC(=O)NCCOCCOCC(=O)N[C@@H](Cc1ccc(O)cc1)C(=O)NCC(=O)N[C@@H](Cc1c[nH]c2ccccc12)C(=O)N[C@@H](CC(C)C)C(=O)N[C@@H](CC(=O)O)C(=O)N[C@@H](Cc1ccccc1)C(N)=O)C(C)C)[C@@H](C)CC)C(=O)O` [Compound 107, [Arg34,Lys(Hexadecanoyl-isoGlu)26]GLP-1(7-37)-Peg3-Peg3-[Leu4]Gastrin6], the EC50 (Table 3) stood at 29 nM.

For the compound `CCCCCCCCCCCCCCCC(=O)N[C@@H](CCC(=O)NCCCC[C@H](NC(=O)[C@H](C)NC(=O)[C@H](C)NC(=O)[C@H](CCC(N)=O)NC(=O)CNC(=O)[C@H](CCC(=O)O)NC(=O)[C@H](CC(C)C)NC(=O)[C@H](Cc1ccc(O)cc1)NC(=O)[C@H](CO)NC(=O)[C@H](CO)NC(=O)[C@@H](NC(=O)[C@H](CC(=O)O)NC(=O)[C@H](CO)NC(=O)[C@@H](NC(=O)[C@H](Cc1ccccc1)NC(=O)[C@@H](NC(=O)CNC(=O)[C@H](CCC(=O)O)NC(=O)[C@H](C)NC(=O)[C@@H](N)Cc1c[nH]cn1)[C@@H](C)O)[C@@H](C)O)C(C)C)C(=O)N[C@@H](CCC(=O)O)C(=O)N[C@@H](Cc1ccccc1)C(=O)N[C@H](C(=O)N[C@@H](C)C(=O)N[C@@H](Cc1c[nH]c2ccccc12)C(=O)N[C@@H](CC(C)C)C(=O)N[C@H](C(=O)N[C@@H](CCCCN)C(=O)NCC(=O)N[C@@H](CCCNC(=N)N)C(=O)NCC(=O)NCCOCCOCC(=O)NCCOCCOCC(=O)N[C@@H](Cc1ccc(O)cc1)C(=O)NCC(=O)N[C@@H](Cc1c[nH]c2ccccc12)C(=O)N[C@@H](CC(C)C)C(=O)N[C@@H](CC(=O)O)C(=O)N[C@@H](Cc1ccccc1)C(N)=O)C(C)C)[C@@H](C)CC)C(=O)O` [Compound 109, [Lys(Hexadecanoyl-isoGlu)26]GLP-1(7-37)-Peg3-Peg3-[Leu4]Gastrin6], the concentration giving a half-maximal response (EC50) (Table 3) came out at 26 nM.

For the compound `CC[C@H](C)[C@H](NC(=O)[C@H](Cc1ccccc1)NC(=O)[C@H](CCC(=O)O)NC(=O)[C@H](CCCCN)NC(=O)[C@H](C)NC(=O)[C@H](C)NC(=O)[C@H](CCC(N)=O)NC(=O)CNC(=O)[C@H](CCC(=O)O)NC(=O)[C@H](CC(C)C)NC(=O)[C@H](Cc1ccc(O)cc1)NC(=O)[C@H](CO)NC(=O)[C@H](CO)NC(=O)[C@@H](NC(=O)[C@H](CC(=O)O)NC(=O)[C@H](CO)NC(=O)[C@@H](NC(=O)[C@H](Cc1ccccc1)NC(=O)[C@@H](NC(=O)CNC(=O)[C@H](CCC(=O)O)NC(=O)[C@H](C)NC(=O)[C@@H](N)Cc1c[nH]cn1)[C@@H](C)O)[C@@H](C)O)C(C)C)C(=O)N[C@@H](C)C(=O)N[C@@H](Cc1c[nH]c2ccccc12)C(=O)N[C@@H](CC(C)C)C(=O)N[C@H](C(=O)N[C@@H](CCCNC(=N)N)C(=O)NCC(=O)N[C@@H](CCCNC(=N)N)C(=O)NCC(=O)NCCOCCOCC(=O)NCCOCCOCC(=O)N[C@@H](Cc1ccc(O)cc1)C(=O)NCC(=O)N[C@@H](Cc1c[nH]c2ccccc12)C(=O)N[C@@H](CC(C)C)C(=O)N[C@@H](CC(=O)O)C(=O)N[C@@H](Cc1ccccc1)C(N)=O)C(C)C` [Compound 113, [Arg34]GLP-1(7-37)-Peg3-Peg3-[Leu4]Gastrin6], the EC50 (Table 3) turned out to be 24 nM.

In general, EC50 refers to the midpoint of the concentration-response curve.

For the origin of these results see patent publication US10406207B2, “Peptide conjugates of GLP-1 receptor agonists and gastrin and their use” (priority 2010, dated 2019).
